Where “and” joins values, the source holds several entries; their conditions need not be identical. Identical values can stand only once. Inconclusive results and toxic doses are left out.

Our source for the T/C values is PubChem BioAssay AID248 (DTP/NCI, 2004).

The experiment concerns L1210 leukemia ip in BDF1 mice, survival T/C. The experiment can be described thus: NCI In Vivo Anticancer Drug Screen. Data for tumor model L1210 Leukemia (intraperitoneal) in B6D2F1 (BDF1) mice. The following applies: endpoint: mean survival time, higher = longer survival. In short, it runs like this: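 Mice bearing the transplanted tumor received compound or vehicle. Survival of the treated group was divided by that of the vehicle-treated control group to give the ratio.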

Setting [1] is: dose: 100.0 mg/kg/injection, schedule: Q01DX001 (ip), vehicle: carboxymethylcellulose (CMC).
Setting [2] is: dose: 200.0 mg/kg/injection, schedule: Q01DX001 (ip), vehicle: carboxymethylcellulose (CMC).
Setting [3] is: dose: 400.0 mg/kg/injection, schedule: Q01DX001 (ip), vehicle: carboxymethylcellulose (CMC).
The mark [4] stands for this setting: dose: 100.0 mg/kg/injection, schedule: Q04DX003 (ip), vehicle: saline with Tween-80.
Setting [5] is: dose: 200.0 mg/kg/injection, schedule: Q04DX003 (ip), vehicle: saline with Tween-80.
Setting [6] is: dose: 400.0 mg/kg/injection, schedule: Q04DX003 (ip), vehicle: saline with Tween-80.
The mark [7] stands for this setting: dose: 50.0 mg/kg/injection, schedule: Q01DX001 (ip), vehicle: saline.
Setting [8] is: dose: 100.0 mg/kg/injection, schedule: Q01DX001 (ip), vehicle: saline.
Where [9] appears, read: dose: 200.0 mg/kg/injection, schedule: Q01DX001 (ip), vehicle: saline.
The mark [10] stands for this setting: dose: 400.0 mg/kg/injection, schedule: Q01DX001 (ip), vehicle: saline.

For `c1nc(SC2=NCCN2)c2[nH]cnc2n1`, the T/C was 116 % of control (dose: 2.62 mg/kg/injection, schedule: Q01DX Z (ip), vehicle: saline); 100 % of control (dose: 5.0 mg/kg/injection, schedule: Q01DX001 (ip), vehicle: saline); 118 % of control (dose: 5.25 mg/kg/injection, schedule: Q01DX Z (ip), vehicle: saline); 114 % of control (dose: 5.25 mg/kg/injection, schedule: Q01DX Z (oral), vehicle: saline); 105 % of control (dose: 10.0 mg/kg/injection, schedule: Q01DX001 (ip), vehicle: saline); 114 % of control (dose: 10.5 mg/kg/injection, schedule: Q01DX Z (oral), vehicle: saline). For the same compound, the T/C reads like this: (dose: 12.5 mg/kg/injection, schedule: Q01DX009 (ip), vehicle: saline) 115 % of control; (dose: 12.5 mg/kg/injection, schedule: Q04DX003 (ip), vehicle: saline) 109 % of control; (dose: 20.0 mg/kg/injection, schedule: Q01DX001 (ip), vehicle: saline) 103 % of control; (dose: 22.0 mg/kg/injection, schedule: Q04DX003 (ip), vehicle: saline) 106 % of control; (dose: 25.0 mg/kg/injection, schedule: Q01DX009 (ip), vehicle: saline) 118 % of control; (dose: 25.0 mg/kg/injection, schedule: Q04DX003 (ip), vehicle: saline) 117 % of control. Besides, the T/C (dose: 33.0 mg/kg/injection, schedule: Q04DX003 (ip), vehicle: saline) was 114 % of control and 116 % of control; the T/C (dose: 40.0 mg/kg/injection, schedule: Q01DX001 (ip), vehicle: saline) was 108 % of control; the T/C (dose: 42.0 mg/kg/injection, schedule: Q01DX Z (ip), vehicle: saline) was 156 % of control; the T/C (dose: 50.0 mg/kg/injection, schedule: Q01DX009 (ip), vehicle: saline) is 150 % of control and 178 % of control; the T/C (dose: 50.0 mg/kg/injection, schedule: Q04DX003 (ip), vehicle: saline) was 115 % of control and 118 % of control; the T/C (dose: 168.0 mg/kg/injection, schedule: Q01DX Z (oral), vehicle: saline) was 87 % of control.
In the case of `CC(C)CC(N)C(=O)O` (stereo not given), the T/C is, setting by setting: under setting [1], 87 % of control; under setting [2], 91 % of control; under setting [3], 91 % of control.
Take `C(=Nc1ccccc1)c1ccc2c(c1)COO2`: the T/C runs as follows: (dose: 100.0 mg/kg/injection, schedule: Q04DX003 (ip), vehicle: Klucel (hydroxypropylcellulose) (HPC)) 101 % of control; (dose: 200.0 mg/kg/injection, schedule: Q04DX003 (ip), vehicle: Klucel (hydroxypropylcellulose) (HPC)) 101 % of control; (dose: 400.0 mg/kg/injection, schedule: Q04DX003 (ip), vehicle: Klucel (hydroxypropylcellulose) (HPC)) 101 % of control.
As to `COCBr`, the T/C by setting is: (dose: 100.0 mg/kg/injection, schedule: Q01DX009 (ip), vehicle: saline) 110 % of control; (dose: 100.0 mg/kg/injection, schedule: Q04DX003 (ip), vehicle: saline) 103 % of control; (dose: 200.0 mg/kg/injection, schedule: Q01DX009 (ip), vehicle: saline) 101 % of control; (dose: 200.0 mg/kg/injection, schedule: Q04DX003 (ip), vehicle: saline) 103 % of control; (dose: 400.0 mg/kg/injection, schedule: Q04DX003 (ip), vehicle: saline) 94 % of control.
Consider `CCCc1ccccc1NC1=NCCO1`, for which the T/C (dose: 50.0 mg/kg/injection, schedule: Q04DX002 (ip), vehicle: saline with Tween-80) was 98 % of control; the T/C (dose: 100.0 mg/kg/injection, schedule: Q04DX002 (ip), vehicle: saline with Tween-80) was 95 % of control; the T/C under setting [4] is 90 % of control; the T/C (dose: 200.0 mg/kg/injection, schedule: Q04DX002 (ip), vehicle: saline with Tween-80) is 92 % of control; the T/C under setting [5] was 87 % of control; the T/C (dose: 400.0 mg/kg/injection, schedule: Q04DX002 (ip), vehicle: saline with Tween-80) is 88 % of control. Besides, the T/C under setting [6] is 89 % of control.
In the case of `Cn1c(=O)c2[nH]c(CC3CCCC3)nc2n(C)c1=O`, the T/C was 104 % of control under setting [7], 104 % of control under setting [8], 101 % of control under setting [9] and 95 % of control under setting [10].
With `Cc1ccc2nc(C)ccc2c1`, the T/C is 101 % of control (dose: 50.0 mg/kg/injection, schedule: Q01DX001 (ip), vehicle: Klucel (hydroxypropylcellulose) (HPC)); 109 % of control (dose: 100.0 mg/kg/injection, schedule: Q01DX001 (ip), vehicle: Klucel (hydroxypropylcellulose) (HPC)); 107 % of control (dose: 200.0 mg/kg/injection, schedule: Q01DX001 (ip), vehicle: Klucel (hydroxypropylcellulose) (HPC)).
Turning to `CC(=O)n1c(O)c(N=NC(=N)N[N+](=O)[O-])c2ccccc21`, the T/C runs as follows: (dose: 100.0 mg/kg/injection, schedule: Q01DX001 (ip), vehicle: saline with Tween-80) 97 % of control; (dose: 132.0 mg/kg/injection, schedule: Q01DX001 (ip), vehicle: saline with Tween-80) 101 % of control; (dose: 200.0 mg/kg/injection, schedule: Q01DX001 (ip), vehicle: saline with Tween-80) 97 % of control; (dose: 300.0 mg/kg/injection, schedule: Q01DX001 (ip), vehicle: saline with Tween-80) 106 % of control; (dose: 400.0 mg/kg/injection, schedule: Q01DX001 (ip), vehicle: saline with Tween-80) 101 % of control.
For `CC(C)=CCCBr`, the T/C (dose: 50.0 mg/kg/injection, schedule: Q01DX009 (sc), vehicle: olive oil, sesame oil, peanut oil) is 108 % of control; the T/C (dose: 100.0 mg/kg/injection, schedule: Q01DX009 (sc), vehicle: olive oil, sesame oil, peanut oil) was 102 % of control; the T/C (dose: 200.0 mg/kg/injection, schedule: Q01DX009 (sc), vehicle: olive oil, sesame oil, peanut oil) was 108 % of control.
As to `O=C(CCCC(=O)N/N=C/c1c2ccccc2cc2ccccc12)N/N=C/c1c2ccccc2cc2ccccc12`, the T/C under setting [7] was 100 % of control, the T/C under setting [8] was 102 % of control, the T/C under setting [9] was 96 % of control and the T/C under setting [10] was 96 % of control.
Consider `COc1ccc(Oc2cccc3cnccc23)cc1`, for which the T/C is 102 % of control (dose: 100.0 mg/kg/injection, schedule: Q04DX002 (ip), vehicle: Klucel (hydroxypropylcellulose) (HPC)); 91 % of control (dose: 200.0 mg/kg/injection, schedule: Q04DX002 (ip), vehicle: Klucel (hydroxypropylcellulose) (HPC)); 94 % of control (dose: 400.0 mg/kg/injection, schedule: Q04DX002 (ip), vehicle: Klucel (hydroxypropylcellulose) (HPC)).
For `O=C(/C(Br)=C/c1ccccc1)c1ccccc1`, the T/C runs as follows: (dose: 50.0 mg/kg/injection, schedule: Q01DX009 (ip), vehicle: other) 103 % of control; (dose: 100.0 mg/kg/injection, schedule: Q01DX009 (ip), vehicle: other) 105 % of control; (dose: 200.0 mg/kg/injection, schedule: Q01DX009 (ip), vehicle: other) 100 % of control.
`N#Cc1cc2ccncc2c2ccccc12`: the T/C reads like this: under setting [4], 100 % of control; under setting [5], 96 % of control; under setting [6], 97 % of control.
`COC1(OC)C2C(Cl)=C(Cl)C1(Cl)C(Br)C2c1ccccc1` (stereo not given): the T/C by setting is: under setting [1], 97 % of control; under setting [2], 92 % of control; under setting [3], 103 % of control.
Take `CC(=O)Nc1ccc(NC(=O)c2cccc3ccccc23)cc1`: the T/C by setting is: (dose: 50.0 mg/kg/injection, schedule: Q01DX009 (ip), vehicle: Klucel (hydroxypropylcellulose) (HPC)) 90 % of control; (dose: 100.0 mg/kg/injection, schedule: Q01DX009 (ip), vehicle: Klucel (hydroxypropylcellulose) (HPC)) 98 % of control and 86 % of control and 90 % of control; (dose: 200.0 mg/kg/injection, schedule: Q01DX009 (ip), vehicle: Klucel (hydroxypropylcellulose) (HPC)) 86 % of control; (dose: 400.0 mg/kg/injection, schedule: Q01DX009 (ip), vehicle: Klucel (hydroxypropylcellulose) (HPC)) 87 % of control and 89 % of control.
On to `CCOC(=O)CCNC1CCCCC1`, for which the T/C by setting is: (dose: 100.0 mg/kg/injection, schedule: Q01DX Z (ip), vehicle: methylcellulose (MC)) 96 % of control; (dose: 200.0 mg/kg/injection, schedule: Q01DX Z (ip), vehicle: methylcellulose (MC)) 94 % of control.
As to `CCSC1C(OC(C)=O)C(C(COC(C)=O)OC(C)=O)OC1n1cnc2c(Cl)nc(Cl)nc21` (stereo not given), the T/C was 109 % of control (dose: 100.0 mg/kg/injection, schedule: Q01DX005 (ip), vehicle: saline) and 109 % of control (dose: 200.0 mg/kg/injection, schedule: Q01DX005 (ip), vehicle: saline).
